These results are taken from patent US20080207728A1, “BICYCLIC ACYLTRYPTOPHANOLS” (priority 2006, published 2008).

pIC50: −log10 of the molar value. Where two headings read alike, the source gives them in different places.

In this test the target is T1, human FSH receptor (Homo sapiens, UniProt P23945).
T1 construct: expressed in transfected cells; host or cells: CHO cells (hFSHR clone 16)
T1 sequence (P23945 18-695): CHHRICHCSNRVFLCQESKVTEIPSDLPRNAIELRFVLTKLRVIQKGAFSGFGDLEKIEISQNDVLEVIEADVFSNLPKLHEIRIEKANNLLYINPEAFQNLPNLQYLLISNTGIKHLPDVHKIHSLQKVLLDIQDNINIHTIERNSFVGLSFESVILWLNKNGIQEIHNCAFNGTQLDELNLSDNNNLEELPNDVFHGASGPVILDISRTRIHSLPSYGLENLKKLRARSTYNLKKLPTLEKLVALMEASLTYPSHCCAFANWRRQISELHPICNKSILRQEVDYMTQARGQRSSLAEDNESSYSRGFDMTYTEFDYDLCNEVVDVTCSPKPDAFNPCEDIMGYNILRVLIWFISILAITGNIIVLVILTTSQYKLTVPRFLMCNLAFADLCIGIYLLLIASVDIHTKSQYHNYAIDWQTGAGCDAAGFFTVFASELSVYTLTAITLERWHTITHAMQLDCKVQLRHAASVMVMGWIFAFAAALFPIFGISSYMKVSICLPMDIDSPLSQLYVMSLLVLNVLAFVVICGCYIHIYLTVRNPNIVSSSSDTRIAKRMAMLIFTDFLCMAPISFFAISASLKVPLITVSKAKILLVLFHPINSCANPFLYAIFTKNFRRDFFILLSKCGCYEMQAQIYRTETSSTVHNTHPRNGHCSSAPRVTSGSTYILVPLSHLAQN
As to the kind of experiment: HTRF assay for measuring cAMP in cells (FSH antagonism). In kind it is cell-based. As to conditions: hFSHR clone 16 cells (CHO cells stably transfected with the human FSH receptor), in the presence of 1e-9 mol/l hFSH, 37° C. for 2 h, read-out: IC50 (FSH-antagonistic effect in the HTRF assay). As for the experimental part:
HTRF Assay for Measuring cAMP in Cells
The method is based on a competitive immunoassay between native cAMP, which has been produced by the cells, and cAMP which is labelled with XL665. The tracer binding was visualized by a monoclonal antibody, anti-cAMP labelled with cryptate [HTRF=homogeneous time-resolved fluorescence].
The specific signal is inversely proportional to the cAMP concentration of the samples employed.
The 665 nm/620 nm fluorescence ratio was evaluated.
The following material was used: 96-well plates for the tissue culture, 96-well plates with black edge and black base (e.g. Fluotrac 600 from Greiner), 96-well plates for the substance dilutions of polypropylene and cAMP Femtomolar (4000 wells Kit, CIS Bio International # 62AM1PEC).
The following reagents were used: BSA (bovine serum albumin) Fraction V protease-free, IBMX (3-isobutyl-1-methylxanthine), hFSH (human follicle stimulating hormone), Triton X-100 analytical grade, potassium fluoride analytical grade, G 418 (Geneticin) and Accutase.
Buffer 1 (washing and testing buffer) contained PBS, 1 mM CaCl2, 1 mM MgCl2, 0.2% glucose; 0.1% BSA, 1 mM IBMX.
Buffer 2 (2× lysis buffer) contained 1% Triton X-100 in PBS (without CaCl2 and MgCl2).
Buffer 3 (assay buffer) contained 50 mM potassium phosphate buffer (pH 7.0); 800 mM potassium fluoride; 0.2% BSA (always added fresh).
On day 1, the cells were seeded in 96-well plates (3×10^4 cells per well hFSHR clone 16 cells (CHO cells stably transfected with the human FSH receptor in 150 μl of medium).
The next day, test substance dilutions were made up. For this purpose, all the substances were diluted in ice-cold buffer 1 (with or without hFSH), and the substance dilutions were placed on ice until applied to the cells.
The cell supernatant was then aspirated off, and the cells were washed 2× with 200 μl of buffer 1. The cells were treated with 60 μl of the appropriate substance concentrations at 37° C. for 2 h. The cells were then lysed with 60 μl of buffer 2 (put onto the supernatant) (on a plate shaker at RT for 30 min).
The test conjugates (XL-665 and anti-cAMP cryptate) were diluted in buffer 3 in accordance with the manufacturers' information. The actual mixture for measurement was pipetted into a black 96-well plate (in each case 15 μl of the cell lysate diluted with 35 μl of buffer 1; firstly 25 μl of XL-665 conjugate were pipetted and, after 10 min, 25 μl of the anti-cAMP cryptate were added). This is followed by incubation at RT for 90 minutes. The measurement was carried out in a PheraStar (BMG).
Tissue Culture Conditions
Dose-effect curve (hFSH) for the human receptor: 1e-8, 3e-9, 1 e-9, 3e-10, 1 e-10, 3e-11, 1e-11, 3e-12 mol/l.
The test substances were employed in suitable dilutions in the absence (test for agonism) and in the presence of 1e-9 mol/l hFSH.
The values of the well ratio were averaged and then entered directly in SigmaPlot versus the concentrations. The maximum and minimum values were determined for each plate, and half the difference is to be regarded as IC50.

As usually defined, the pIC50 is −log10 of the IC50, conventionally taken in molar units. With `CN(C)S(=O)(=O)c1ccc(-c2cc3c(c(C(=O)N[C@@H](CO)Cc4c[nH]c5ccccc45)c2)OCCO3)cc1` [Example 123, 7-(4-Dimethylsulfamoyl-phenyl)-2,3-dihydro-benzo[1,4]dioxine-5-carboxylic acid [(R)-1-hydroxymethyl-2-(1H-indol-3-yl)-ethyl]-amide], the pIC50 (Table 2) was 5.70.
Turning to `COc1ccccc1C#Cc1cc2c(c(C(=O)N[C@@H](CO)Cc3c[nH]c4ccccc34)c1)OCCO2` [Example 85, 7-(2-Methoxy-phenylethynyl)-2,3-dihydro-benzo[1,4]dioxine-5-carboxylic acid [(R)-1-hydroxymethyl-2-(1H-indol-3-yl)-ethyl]-amide], where the note is “Table 1”, the pIC50 was 6.70.
Same read-out and setting: the figure for `O=C(N[C@@H](CO)Cc1c[nH]c2ccccc12)c1cc(-c2ccc3ccccc3c2)cc2c1OCC2` [Example 43, 5-Naphthalen-2-yl-2,3-dihydro-benzofuran-7-carboxylic acid [(R)-1-hydroxymethyl-2-(1H-indol-3-yl)-ethyl]-amide] is 5.40.
Regarding `O=C(N[C@@H](CO)Cc1c[nH]c2ccccc12)c1cc(-c2cccc(Cl)c2)cc2c1OCCO2` [Example 130, 7-(3-Chloro-phenyl)-2,3-dihydro-benzo[1,4]dioxine-5-carboxylic acid [(R)-1-hydroxymethyl-2-(1H-indol-3-yl)-ethyl]-amide], the pIC50 (Table 2) is 5.52.
With `CNC(=O)c1ccc(-c2cc3c(c(C(=O)N[C@@H](CO)Cc4c[nH]c5ccccc45)c2)OCC3)cc1` [Example 65, 5-(4-Methylcarbamoyl-phenyl)-2,3-dihydro-benzofuran-7-carboxylic acid [(R)-1-hydroxymethyl-2-(1H-indol-3-yl)-ethyl]-amide], the pIC50 (Table 1) is 5.70.
Regarding `Cc1ccccc1-c1cc2c(c(C(=O)N[C@@H](CO)Cc3c[nH]c4ccccc34)c1)OCCO2` [Example 143, 7-o-Tolyl-2,3-dihydro-benzo[1,4]dioxine-5-carboxylic acid [(R)-1-hydroxymethyl-2-(1H-indol-3-yl)-ethyl]-amide], for the setting “Table 2”, the pIC50 was 5.05.
Consider `CNC(=O)c1ccc(C#Cc2cc3c(c(C(=O)NC(CO)Cc4c[nH]c5cc(F)ccc45)c2)OCCCC3)cc1` (stereo not shown) [Example 84, 7-(4-Methylcarbamoyl-phenylethynyl)-2,3,4,5-tetrahydro-benzo[b]oxepine-9-carboxylic acid [2-(6-fluoro-1H-indol-3-yl)-1-hydroxymethyl-ethyl]-amide], for which, under “Table 1”, the pIC50 was 7.30.
Turning to `CNC(=O)c1ccc(-c2cc3c(c(C(=O)N[C@@H](CO)Cc4c[nH]c5ccccc45)c2)OCCO3)cc1` [Example 142, 7-(4-Methylcarbamoyl-phenyl)-2,3-dihydro-benzo[1,4]dioxine-5-carboxylic acid [(R)-1-hydroxymethyl-2-(1H-indol-3-yl)-ethyl]-amide], for the setting “Table 2”, the pIC50 is 6.70.
As to `CC(=O)c1cccc(-c2cc3c(c(C(=O)N[C@@H](CO)Cc4c[nH]c5ccccc45)c2)OCC3)c1` [Example 56, 5-(3-Acetyl-phenyl)-2,3-dihydro-benzofuran-7-carboxylic acid [(R)-1-hydroxymethyl-2-(1H-indol-3-yl)-ethyl]-amide], the pIC50 (Table 1) is 5.70.
Same read-out and setting: the figure for `O=C(N[C@@H](CO)Cc1c[nH]c2ccccc12)c1cc(-c2ccc(O)cc2)cc2c1OCC2` [Example 51, 5-(4-Hydroxy-phenyl)-2,3-dihydro-benzofuran-7-carboxylic acid [(R)-1-hydroxymethyl-2-(1H-indol-3-yl)-ethyl]-amide] is 6.15.
Turning to `Nc1cccc(-c2cc3c(c(C(=O)N[C@@H](CO)Cc4c[nH]c5ccccc45)c2)OCCO3)c1` [Example 135, 7-(3-Amino-phenyl)-2,3-dihydro-benzo[1,4]dioxine-5-carboxylic acid [(R)-1-hydroxymethyl-2-(1H-indol-3-yl)-ethyl]-amide], where the note is “Table 2”, the pIC50 is 6.10.
As for `CNC(=O)c1cc(F)cc(-c2cc3c(c(C(=O)NC(CO)Cc4c[nH]c5cccc(C)c45)c2)OCCCC3)c1` (stereo not shown) [Example 86, 7-(3-Fluoro-5-methylcarbamoyl-phenyl)-2,3,4,5-tetrahydro-benzo[b]oxepine-9-carboxylic acid [2-hydroxy-1-(4-methyl-1H-indol-3-ylmethyl)-ethyl]-amide], where the note is “Table 1”, the pIC50 is 5.82.
Still for that read-out and setting: to `N#CCc1ccc(-c2cc3c(c(C(=O)N[C@@H](CO)Cc4c[nH]c5ccccc45)c2)OCC3)cc1` [Example 73, 5-(4-Cyanomethyl-phenyl)-2,3-dihydro-benzofuran-7-carboxylic acid [(R)-1-hydroxymethyl-2-(1H-indol-3-yl)-ethyl]-amide] belongs 5.70.
On the same count and under the same terms, the figure for `O=C(NC(CO)Cc1c[nH]c2cc(F)ccc12)c1cc(/C=C/c2ccccc2)cc2c1OCCCC2` (stereo not shown) [Example 83, 7-((E)-Styryl)-2,3,4,5-tetrahydro-benzo[b]oxepine-9-carboxylic acid [2-(6-fluoro-1H-indol-3-yl)-1-hydroxymethyl-ethyl]-amide] is 6.46.
For the molecule `O=C(N[C@@H](CO)Cc1c[nH]c2ccccc12)c1cc(-c2ccc(CO)cc2)cc2c1OCCO2` [Example 96, 7-(4-Hydroxymethyl-phenyl)-2,3-dihydro-benzo[1,4]dioxine-5-carboxylic acid [(R)-1-hydroxymethyl-2-(1H-indol-3-yl)-ethyl]-amide], the pIC50 (Table 2) was 6.00.
On to `CNC(=O)c1ccc(-c2cc3c(c(C(=O)NC(CO)Cc4c[nH]c5cccc(F)c45)c2)OC(C)(C)C=C3)cc1Cl` (stereo not shown) [Example 88, 6-(3-Chloro-4-methylcarbamoyl-phenyl)-2,2-dimethyl-2H-chromene-8-carboxylic acid [2-(4-fluoro-1H-indol-3-yl)-1-hydroxymethyl-ethyl]-amide], for which the pIC50 (Table 1) was 7.52.
Same read-out and setting: the figure for `CNC(=O)c1cc(F)cc(-c2cc3c(c(C(=O)N[C@@H](CO)Cc4c[nH]c5ccccc45)c2)OCC3)c1` [Example 82, 5-(3-Fluoro-5-methylcarbamoyl-phenyl)-2,3-dihydro-benzofuran-7-carboxylic acid [(R)-1-hydroxymethyl-2-(1H-indol-3-yl)-ethyl]-amide] is 5.40.
As for `CNC(=O)c1cccc(C#Cc2cc3c(c(C(=O)NC(CO)Cc4c[nH]c5cc(F)ccc45)c2)OCCCC3)c1` (stereo not shown) [Example 91, 7-(3-Methylcarbamoyl-phenylethynyl)-2,3,4,5-tetrahydro-benzo[b]oxepine-9-carboxylic acid [2-(6-fluoro-1H-indol-3-yl)-1-hydroxymethyl-ethyl]-amide], the pIC50 (Table 2) is 7.22.
Same read-out and setting: to `CSc1cccc(-c2cc3c(c(C(=O)N[C@@H](CO)Cc4c[nH]c5ccccc45)c2)OCCO3)c1` [Example 100, 7-(3-Methylsulfanyl-phenyl)-2,3-dihydro-benzo[1,4]dioxine-5-carboxylic acid [(R)-1-hydroxymethyl-2-(1H-indol-3-yl)-ethyl]-amide] belongs 6.05.
